The logD is lipophilicity at a set pH, counting ionised and neutral species. Low readings indicate a more hydrophilic compound, high ones a more lipophilic compound. The term bioavailability denotes dose-corrected exposure relative to a reference, in per cent.

A short description of one data set: Lipophilicity, log D at pH 7.4. It is filed as physicochemical. Conditions: buffer.
On to `CC(C)(C)[C@H](NC(=O)n1c(=O)n(CCC2CCOCC2)c2ccccc21)C(N)=O`, for which the pH-dependent lipophilicity (logD) was 2.4.
With `CC(C)(C)[C@H](NC(=O)n1c(=O)n(CC2CCCO2)c2ccccc21)C(N)=O` (stereo not given in full), the logD was found to be 2.1.
Same read-out and setting: the result for `CC(C)(C)[C@H](NC(=O)n1c(=O)n(CCC2(O)CCOCC2)c2ccccc21)C(N)=O` reads 1.9; that for `CN(C)CCn1c(=O)n(C(=O)N[C@H](C(N)=O)C(C)(C)C)c2ccccc21`, 1.5.
Same read-out and setting: for `CC(C)(O)CCn1c(=O)n(C(=O)N[C@H](C(N)=O)C(C)(C)C)c2ccccc21` the value was 2.2.
`CC(C)(C)[C@H](NC(=O)n1c(=O)n(CC2(O)CCOCC2)c2ccccc21)C(N)=O` came in with a logD of 1.6.
Take `CC(C)(O)Cn1c(=O)n(C(=O)N[C@H](C(N)=O)C(C)(C)C)c2ccccc21`: the logD amounted to 2.2.
Regarding `CC(C)(C)[C@H](NC(=O)n1c(=O)n(CCN2CCCC2)c2ccccc21)C(N)=O`, the logD came out at 1.5.
The compound `CC(C)CCn1c(=O)n(C(=O)N[C@H](C(N)=O)C(C)(C)C)c2ccccc21` showed a logD of 3.4.

A short description of a further data set: Bioavailability in rat at 3 mg/kg, po. Conditions: in vivo. It is filed as ADME, organism-based.
As to `CC(C)(O)CCn1c(=O)n(C(=O)N[C@H](C(N)=O)C(C)(C)C)c2ccccc21`, the bioavailability was found to be 33%.

Source of the values: ChEMBL document CHEMBL1150312, “The SAR studies of novel CB2 selective agonists, benzimidazolone derivatives” (Bioorg Med Chem Lett, 2008).
